Values of other authors, collected in patent US20070077220A1, “Stable ascorbic acid compositions” (priority 2005, published 2007).

pK (acid-ionizable hydrogen in water): 4.2
SMILES: O=C1O[C@H]([C@@H](O)CO)C(O)=C1O [L-ascorbic acid]
